The results in this text go back to ChEMBL document CHEMBL2346515, “Discovery of 4-alkylamino-7-aryl-3-cyanoquinoline LRRK2 kinase inhibitors” (Bioorg Med Chem Lett, 2013).

One data set has as its system MDCK. Nature of the data set: Permeability in MDCK cells expressing MDR1. The class given is ADME, cell-based, Canis lupus familiaris. The conditions noted are these: dog.
In a further data set the test system is Brain. Nature of the data set: Drug uptake in brain of MDR1 a/b(-/-) and P-gp competant wild-type FVB mouse at 1 mg/kg, iv after 5 mins. Type of data set: ADME, organism-based. The conditions noted are these: in vivo. Also on record: dose 1 mg/kg, route intravenous.
The target in data set [1] is Tyrosine-protein kinase SYK (Homo sapiens) (UniProt P43405). Nature of the data set: Inhibition of SYK (unknown origin) at 1 uM by single point assay.
Data set [2] addresses T1, Serine/threonine-protein kinase 3 (Homo sapiens) (UniProt Q13188).
T1 sequence (whole entry): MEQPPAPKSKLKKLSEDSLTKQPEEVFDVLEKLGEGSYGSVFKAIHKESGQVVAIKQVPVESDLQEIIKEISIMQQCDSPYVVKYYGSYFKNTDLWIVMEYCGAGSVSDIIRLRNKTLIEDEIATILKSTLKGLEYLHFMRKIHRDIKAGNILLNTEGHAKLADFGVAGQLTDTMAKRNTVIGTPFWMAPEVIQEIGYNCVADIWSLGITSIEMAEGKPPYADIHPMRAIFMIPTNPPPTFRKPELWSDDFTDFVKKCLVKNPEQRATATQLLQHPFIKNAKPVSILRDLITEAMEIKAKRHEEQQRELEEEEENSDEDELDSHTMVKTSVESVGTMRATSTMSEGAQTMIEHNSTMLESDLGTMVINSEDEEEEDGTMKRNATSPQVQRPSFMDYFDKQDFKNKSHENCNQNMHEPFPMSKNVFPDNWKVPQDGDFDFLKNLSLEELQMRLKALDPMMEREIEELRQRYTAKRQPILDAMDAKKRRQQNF
Nature of the data set: Inhibition of STK3 (unknown origin) at 1 uM by single point assay.

Data set [3] has as its target Rho-associated protein kinase 2 (Homo sapiens) (UniProt O75116). Nature of the data set: Inhibition of ROCK2 (unknown origin) at 1 uM by single point assay.
Data set [4] concerns the target Receptor-interacting serine/threonine-protein kinase 2 (Homo sapiens) (UniProt O43353). Nature of the data set: Inhibition of RIPK2 (unknown origin) at 1 uM by single point assay.
The target in data set [5] is RAF proto-oncogene serine/threonine-protein kinase (Homo sapiens) (UniProt P04049). Nature of the data set: Inhibition of RAF1 (unknown origin) at 1 uM by single point assay.
RAF proto-oncogene serine/threonine-protein kinase (Homo sapiens), sequence (P04049 whole entry): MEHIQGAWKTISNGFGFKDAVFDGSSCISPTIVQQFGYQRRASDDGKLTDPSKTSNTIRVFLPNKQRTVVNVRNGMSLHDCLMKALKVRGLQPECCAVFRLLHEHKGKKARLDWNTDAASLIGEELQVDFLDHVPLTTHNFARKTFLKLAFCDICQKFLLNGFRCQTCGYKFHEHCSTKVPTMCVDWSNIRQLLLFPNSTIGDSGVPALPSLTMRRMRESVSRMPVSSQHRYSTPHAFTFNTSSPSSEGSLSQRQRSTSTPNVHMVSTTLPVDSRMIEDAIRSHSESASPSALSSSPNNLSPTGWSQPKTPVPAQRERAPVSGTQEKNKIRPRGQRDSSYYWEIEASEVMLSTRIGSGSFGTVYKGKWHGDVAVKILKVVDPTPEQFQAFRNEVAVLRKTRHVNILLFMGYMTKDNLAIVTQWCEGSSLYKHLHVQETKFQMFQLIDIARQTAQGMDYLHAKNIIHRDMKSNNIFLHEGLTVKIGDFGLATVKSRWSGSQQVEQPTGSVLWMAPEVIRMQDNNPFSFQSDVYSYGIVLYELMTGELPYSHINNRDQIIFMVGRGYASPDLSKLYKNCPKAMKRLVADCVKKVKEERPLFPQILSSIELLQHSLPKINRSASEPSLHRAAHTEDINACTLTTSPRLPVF
Data set [6] deals with Proto-oncogene tyrosine-protein kinase receptor Ret (Homo sapiens) (UniProt P07949). Nature of the data set: Inhibition of RET (unknown origin) at 1 uM by single point assay.
The target of data set [7] is Serine/threonine-protein kinase PLK1 (Homo sapiens) (UniProt P53350). Nature of the data set: Inhibition of PLK1 (unknown origin) at 1 uM by single point assay.
In data set [8] the target is Serine/threonine-protein kinase PLK2 (Homo sapiens) (UniProt Q9NYY3). Nature of the data set: Inhibition of PLK2 (unknown origin) at 1 uM by single point assay.
Serine/threonine-protein kinase PLK2 (Homo sapiens), sequence (Q9NYY3 whole entry, looked up): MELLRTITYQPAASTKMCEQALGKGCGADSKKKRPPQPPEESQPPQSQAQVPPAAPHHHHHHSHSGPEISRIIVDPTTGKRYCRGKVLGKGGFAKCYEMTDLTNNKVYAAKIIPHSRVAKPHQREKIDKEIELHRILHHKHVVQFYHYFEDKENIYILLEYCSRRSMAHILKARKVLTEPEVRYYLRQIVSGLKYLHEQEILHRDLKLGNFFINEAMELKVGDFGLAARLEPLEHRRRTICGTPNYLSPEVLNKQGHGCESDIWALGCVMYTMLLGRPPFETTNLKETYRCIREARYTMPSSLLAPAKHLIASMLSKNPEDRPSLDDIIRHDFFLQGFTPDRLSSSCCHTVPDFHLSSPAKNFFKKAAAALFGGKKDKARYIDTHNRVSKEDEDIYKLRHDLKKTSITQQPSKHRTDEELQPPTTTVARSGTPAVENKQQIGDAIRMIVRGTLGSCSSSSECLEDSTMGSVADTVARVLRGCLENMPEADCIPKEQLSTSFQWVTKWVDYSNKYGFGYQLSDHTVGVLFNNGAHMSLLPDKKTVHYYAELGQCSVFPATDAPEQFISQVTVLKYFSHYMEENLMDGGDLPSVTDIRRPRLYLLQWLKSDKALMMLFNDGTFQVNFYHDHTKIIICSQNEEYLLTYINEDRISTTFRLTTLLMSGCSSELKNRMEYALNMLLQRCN
Data set [9] concerns the target PI3-kinase p110-alpha/p85-alpha (Homo sapiens) (UniProt P27986+P42336). Nature of the data set: Inhibition of PIK3CA/PIK3R1 (unknown origin) at 1 uM by single point assay. The class given is protein-complex assay.
Data set [10] concerns the target Platelet-derived growth factor receptor alpha (Homo sapiens) (UniProt P16234). Nature of the data set: Inhibition of PDGFRalpha (unknown origin) at 1 uM by single point assay.
In data set [11] the target is Mitogen-activated protein kinase 1 (Homo sapiens) (UniProt P28482). Nature of the data set: Inhibition of MAPK1 (unknown origin) at 1 uM by single point assay.
Mitogen-activated protein kinase 1 (Homo sapiens), sequence (P28482 whole entry): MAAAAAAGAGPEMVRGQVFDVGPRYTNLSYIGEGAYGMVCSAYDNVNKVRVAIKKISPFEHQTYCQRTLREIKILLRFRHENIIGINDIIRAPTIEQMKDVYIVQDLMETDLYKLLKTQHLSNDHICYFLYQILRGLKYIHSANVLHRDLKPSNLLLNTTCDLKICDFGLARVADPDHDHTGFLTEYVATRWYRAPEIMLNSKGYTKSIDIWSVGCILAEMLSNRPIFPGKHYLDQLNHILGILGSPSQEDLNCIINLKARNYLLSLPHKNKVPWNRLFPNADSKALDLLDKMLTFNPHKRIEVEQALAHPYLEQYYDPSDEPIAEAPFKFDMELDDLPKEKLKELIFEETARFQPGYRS
For data set [12], the target named is T2, Leucine-rich repeat serine/threonine-protein kinase 2 (Homo sapiens, UniProt Q5S007). Nature of the data set: Inhibition of LRRK2 (unknown origin) at 1 uM by single point assay.
T2 sequence (Q5S007 whole entry): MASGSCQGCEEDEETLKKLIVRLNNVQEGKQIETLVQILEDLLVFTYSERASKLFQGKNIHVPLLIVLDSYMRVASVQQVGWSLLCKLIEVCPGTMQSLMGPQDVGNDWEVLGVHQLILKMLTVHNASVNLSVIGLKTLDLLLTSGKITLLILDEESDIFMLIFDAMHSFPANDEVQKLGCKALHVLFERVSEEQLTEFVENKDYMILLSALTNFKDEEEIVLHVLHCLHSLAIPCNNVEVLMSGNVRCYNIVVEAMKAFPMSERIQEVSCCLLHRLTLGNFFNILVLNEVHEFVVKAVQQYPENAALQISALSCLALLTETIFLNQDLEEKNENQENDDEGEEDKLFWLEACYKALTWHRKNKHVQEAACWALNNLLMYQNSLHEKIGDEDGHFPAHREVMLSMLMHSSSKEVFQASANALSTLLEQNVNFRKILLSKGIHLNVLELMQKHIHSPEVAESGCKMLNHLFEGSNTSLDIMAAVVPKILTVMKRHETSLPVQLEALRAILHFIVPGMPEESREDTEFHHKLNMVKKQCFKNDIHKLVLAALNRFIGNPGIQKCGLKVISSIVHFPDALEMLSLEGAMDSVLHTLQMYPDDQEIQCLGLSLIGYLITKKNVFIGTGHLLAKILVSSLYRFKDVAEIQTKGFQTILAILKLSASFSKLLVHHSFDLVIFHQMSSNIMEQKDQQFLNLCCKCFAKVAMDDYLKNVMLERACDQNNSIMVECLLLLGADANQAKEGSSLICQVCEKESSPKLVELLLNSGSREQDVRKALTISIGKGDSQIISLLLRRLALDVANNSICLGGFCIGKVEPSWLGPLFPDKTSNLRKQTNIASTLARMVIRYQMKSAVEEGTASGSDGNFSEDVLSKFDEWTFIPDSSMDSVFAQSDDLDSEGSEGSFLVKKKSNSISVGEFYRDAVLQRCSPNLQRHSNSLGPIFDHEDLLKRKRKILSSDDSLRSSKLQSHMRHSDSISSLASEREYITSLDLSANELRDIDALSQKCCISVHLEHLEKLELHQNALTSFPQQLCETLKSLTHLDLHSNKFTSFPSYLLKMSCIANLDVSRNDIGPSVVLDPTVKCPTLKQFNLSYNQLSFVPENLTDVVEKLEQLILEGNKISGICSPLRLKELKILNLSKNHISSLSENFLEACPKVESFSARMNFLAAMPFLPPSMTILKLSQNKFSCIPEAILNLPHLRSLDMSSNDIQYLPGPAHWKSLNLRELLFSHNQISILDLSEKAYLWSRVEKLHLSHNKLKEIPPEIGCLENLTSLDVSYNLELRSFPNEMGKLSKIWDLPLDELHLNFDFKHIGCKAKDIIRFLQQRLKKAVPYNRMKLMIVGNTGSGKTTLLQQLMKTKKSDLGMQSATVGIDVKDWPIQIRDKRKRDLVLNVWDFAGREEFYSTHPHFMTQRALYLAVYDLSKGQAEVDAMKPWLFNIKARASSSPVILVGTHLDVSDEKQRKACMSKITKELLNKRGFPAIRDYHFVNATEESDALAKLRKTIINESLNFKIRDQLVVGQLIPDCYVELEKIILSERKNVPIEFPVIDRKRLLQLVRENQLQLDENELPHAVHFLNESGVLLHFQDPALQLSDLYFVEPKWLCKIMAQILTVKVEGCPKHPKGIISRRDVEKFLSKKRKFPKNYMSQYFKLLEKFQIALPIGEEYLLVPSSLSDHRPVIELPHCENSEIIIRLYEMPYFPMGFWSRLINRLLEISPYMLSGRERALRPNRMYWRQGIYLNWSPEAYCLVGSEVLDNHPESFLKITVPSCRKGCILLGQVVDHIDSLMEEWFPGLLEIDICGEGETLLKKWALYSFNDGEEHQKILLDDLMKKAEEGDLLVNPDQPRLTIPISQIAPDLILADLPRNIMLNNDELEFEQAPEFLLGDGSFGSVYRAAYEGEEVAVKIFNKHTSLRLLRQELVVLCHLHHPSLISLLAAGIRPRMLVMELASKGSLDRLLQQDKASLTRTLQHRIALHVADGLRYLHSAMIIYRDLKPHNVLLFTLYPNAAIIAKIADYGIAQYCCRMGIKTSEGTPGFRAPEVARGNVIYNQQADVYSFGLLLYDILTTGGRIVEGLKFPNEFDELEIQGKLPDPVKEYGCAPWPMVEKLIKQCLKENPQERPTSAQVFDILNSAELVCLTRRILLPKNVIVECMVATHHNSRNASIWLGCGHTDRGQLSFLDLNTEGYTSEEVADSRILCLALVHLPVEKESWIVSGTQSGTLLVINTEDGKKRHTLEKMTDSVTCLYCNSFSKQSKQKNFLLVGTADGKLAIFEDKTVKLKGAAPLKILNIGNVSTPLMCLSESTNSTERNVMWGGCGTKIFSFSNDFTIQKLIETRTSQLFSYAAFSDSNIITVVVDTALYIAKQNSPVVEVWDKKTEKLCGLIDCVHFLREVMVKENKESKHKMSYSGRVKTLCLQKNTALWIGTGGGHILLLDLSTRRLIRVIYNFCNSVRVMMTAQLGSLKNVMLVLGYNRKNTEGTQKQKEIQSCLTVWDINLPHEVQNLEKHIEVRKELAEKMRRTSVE
The target in data set [13] is Insulin receptor (Homo sapiens) (UniProt P06213). Nature of the data set: Inhibition of INSR (unknown origin) at 1 uM by single point assay.
Data set [14] concerns the target Receptor tyrosine-protein kinase erbB-4 (Homo sapiens) (UniProt Q15303). Nature of the data set: Inhibition of ErbB4 (unknown origin) at 1 uM by single point assay.
The target of data set [15] is Dual specificity tyrosine-phosphorylation-regulated kinase 1B (Homo sapiens) (UniProt Q9Y463). Nature of the data set: Inhibition of DYRK1B (unknown origin) at 1 uM by single point assay.
For data set [16], the target named is Dual specificity protein kinase CLK1 (Homo sapiens) (UniProt P49759). Nature of the data set: Inhibition of CLK1 (unknown origin) at 1 uM by single point assay.
Data set [17] concerns the target T3, Serine/threonine-protein kinase Chk1 (Homo sapiens) (UniProt O14757).
T3 sequence (whole entry): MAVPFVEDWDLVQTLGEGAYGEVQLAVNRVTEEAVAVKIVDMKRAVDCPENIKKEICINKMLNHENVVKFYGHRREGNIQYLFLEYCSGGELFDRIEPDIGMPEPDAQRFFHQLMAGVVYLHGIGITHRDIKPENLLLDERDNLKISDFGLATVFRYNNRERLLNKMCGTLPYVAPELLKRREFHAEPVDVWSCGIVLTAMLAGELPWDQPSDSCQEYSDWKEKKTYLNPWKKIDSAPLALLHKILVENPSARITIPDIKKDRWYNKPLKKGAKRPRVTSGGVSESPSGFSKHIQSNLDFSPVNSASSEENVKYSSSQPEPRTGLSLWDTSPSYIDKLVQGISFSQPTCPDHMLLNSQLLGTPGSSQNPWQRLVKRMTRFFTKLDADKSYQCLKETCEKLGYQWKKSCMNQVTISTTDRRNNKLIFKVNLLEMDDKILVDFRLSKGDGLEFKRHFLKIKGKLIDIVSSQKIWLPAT
Nature of the data set: Inhibition of CHK1 (unknown origin) at 1 uM by single point assay.

Data set [18] has as its target Cyclin-dependent kinase 5/CDK5 activator 1 (Homo sapiens) (UniProt Q00535+Q15078). Nature of the data set: Inhibition of CDK5/p25 (unknown origin) at 1 uM by single point assay. Type of data set: protein-complex assay.
Data set [19] addresses Cyclin-dependent kinase 2/cyclin A (Homo sapiens) (UniProt P24941+P20248+P78396). Nature of the data set: Inhibition of CDK2/cyclin A (unknown origin) at 1 uM by single point assay. Type of data set: protein-complex assay.
Data set [20] addresses Tyrosine-protein kinase ABL1 (Homo sapiens) (UniProt P00519). Nature of the data set: Inhibition of ABL1 (unknown origin) at 1 uM by single point assay.
Data set [21] has as its target RAC-alpha serine/threonine-protein kinase (Homo sapiens) (UniProt P31749). Nature of the data set: Inhibition of AKT1 (unknown origin) at 1 uM by single point assay.
In data set [22] the target is T4, Leucine-rich repeat serine/threonine-protein kinase 2 (Homo sapiens, UniProt Q5S007, G2019S). Nature of the data set: Inhibition of LRRK2 G2019S mutant (unknown origin) Ser935 phosphorylation expressed in HEK293 cells by cell-based assay.
T4 sequence (Q5S007 whole entry G2019S, the tested form may be a part): as the sequence (Q5S007 whole entry) above, with G2019S counted along it
For data set [23], the target named is T4, Leucine-rich repeat serine/threonine-protein kinase 2. Nature of the data set: Inhibition of GST-tagged LRRK2 G2019S mutant (970-2527 amino acids) (unknown origin) assessed as inhibition of LRRKtide phosphorylation by HTRF assay.
Data set [24] deals with T2, Leucine-rich repeat serine/threonine-protein kinase 2. Nature of the data set: Inhibition of wild type GST-tagged LRRK2 (970-2527 amino acids)(unknown origin) assessed as inhibition of LRRKtide phosphorylation by HTRF assay. In general terms: TR-FRET usually uses a lanthanide donor and a delayed reading to cut background.

Cyclin-dependent kinase 5/CDK5 activator 1 (Homo sapiens), sequence (Q00535 whole entry): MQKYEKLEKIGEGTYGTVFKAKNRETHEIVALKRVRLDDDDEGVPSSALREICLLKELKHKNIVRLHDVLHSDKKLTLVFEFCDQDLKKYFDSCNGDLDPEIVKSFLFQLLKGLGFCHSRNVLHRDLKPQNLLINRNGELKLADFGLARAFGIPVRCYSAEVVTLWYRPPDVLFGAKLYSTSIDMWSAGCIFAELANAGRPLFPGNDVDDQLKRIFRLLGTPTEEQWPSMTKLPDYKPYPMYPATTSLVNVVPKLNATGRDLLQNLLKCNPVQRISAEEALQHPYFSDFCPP
Cyclin-dependent kinase 5/CDK5 activator 1 (Homo sapiens), sequence (Q15078 99-307 partner limits assumed): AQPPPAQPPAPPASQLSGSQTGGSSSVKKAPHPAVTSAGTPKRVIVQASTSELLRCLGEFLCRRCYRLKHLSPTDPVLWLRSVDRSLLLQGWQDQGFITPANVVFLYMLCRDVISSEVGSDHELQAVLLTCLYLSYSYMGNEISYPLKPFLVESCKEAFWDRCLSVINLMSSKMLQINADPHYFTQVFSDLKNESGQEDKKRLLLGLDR

Broadly, the inhibition is the relative decrease from the control value, in per cent. For orientation: EC50 means the concentration needed to bring the measured effect to its halfway point. For orientation: IC50 means the point on the concentration scale where inhibition reaches its midpoint. `CC(C)Nc1c(C#N)cnc2cc(-c3ccc(S(C)(=O)=O)cc3)ccc12`: the permeability entry in the data set with MDCK is “impermeable”. Besides, the Drug uptake result in the data set with Brain is given as “Active”. Further, the inhibition in data set [1] was determined as 80%; in [2], 29%; in data set [3], 12%; in data set [4], 17%; in [5] it was 3%; in data set [6], 43%. Besides, the inhibition is 20% in data set [7]; 73% in data set [8]; -2% in data set [9]; 33% in data set [10]; 10% in data set [11]; 82% in data set [12]. Further, the inhibition in data set [13] is 6%; in data set [14], 19%; in [15] it was 49%; in data set [16], 32%; in data set [17], 36%; in [18], 16%. Further, the inhibition worked out at 12% in data set [19], 39% in data set [20] and 10% in data set [21]. In [22], this compound showed an EC50 of 0.435 µM. The IC50 turned out to be 0.028 µM in [23] and 0.031 µM in data set [24].
As to `CC(C)Nc1c(C#N)cnc2cc(-c3cnn(C)c3)ccc12`, the permeability entry in the data set on MDCK is listed as “impermeable”. Further, the Drug uptake entry in the data set with Brain is “Active”. For the same compound, the inhibition in data set [1] was 92%; in data set [2], 15%; in [3], 14%; in data set [4], 77%; in data set [5], 12%; in [6] it was 41%. Besides, the inhibition in [7] is 24%; in data set [8], 89%; in [9], 22%; in [10], 30%; in [11], -2%; in data set [12], 96%. The inhibition is 1% in [13]; 5% in data set [14]; 49% in [15]; 27% in data set [16]; 64% in data set [17]; 12% in data set [18]. For the same compound, the inhibition in [19] came to 5%; in data set [20], 55%; in data set [21], 0%. Also, in data set [22], it took 0.14 µM to reach a half-maximal effect (EC50). Moreover, the IC50 was found to be 0.005 µM in data set [23] and 0.007 µM in data set [24].
As to `C[C@@H](Nc1c(C#N)cnc2cc(-c3ccc(-n4ccoc4=O)cc3)ccc12)C1CC1`, the permeability result in the data set with MDCK was “impermeable”. Also, the Drug uptake entry in the data set with Brain was “Active”. This compound returned an EC50 in [22] of 0.731 µM. In addition, the IC50 in data set [23] came to 0.027 µM; in data set [24], 0.048 µM.
